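Values below derive from 48-hour exposures of cells grown in 96-well plates, with endpoints linearly interpolated between the two concentrations bracketing the appropriate inhibition level. The concentration for 50% growth inhibition is given as GI50.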 Activity calls are given as the source filed them. No stated cut-off is given here; in the data, active = GI50 up to about 1.1 µM and inactive = higher.
Columns and labels:
Experiment in all cases: DTP human tumour cell line panel, 48 h
[1] = tested on: NCI-H522
[2] = tested on: M14
[3] = tested on: IGROV-1
[4] = tested on: OVCAR-8
[5] = tested on: KM12
[6] = tested on: 786-0
[7] = tested on: SR
[8] = tested on: DU-145
[9] = tested on: NCI-H460
[10] = tested on: A549
[11] = tested on: Malme-3M
[12] = tested on: SNB-75
[13] = tested on: HCT-116
[14] = tested on: SNB-19
[15] = tested on: CCRF-CEM
[16] = tested on: HOP-62
[17] = tested on: HCT-15
[18] = tested on: UACC-257
[19] = tested on: Hs-578T
[20] = tested on: A498
[21] = tested on: K562
[22] = tested on: COLO 205
[23] = tested on: PC-3
[24] = tested on: MDA-MB-435
[25] = tested on: BT-549
[26] = tested on: HCC 2998
[27] = tested on: SK-OV-3
[28] = tested on: NCI-H23
[29] = tested on: EKVX
[30] = tested on: OVCAR-4
[31] = tested on: UO-31
[32] = tested on: T47D
[33] = tested on: U-251
[34] = tested on: SF-539
[35] = tested on: SK-MEL-28
[36] = tested on: MDA-N
[37] = tested on: MDA-MB-231
[38] = tested on: OVCAR-3
[39] = tested on: MCF7
[40] = tested on: OVCAR-5
[41] = tested on: NCI/ADR-RES
[42] = tested on: SN12C
[43] = tested on: SW-620
[44] = tested on: SF-268
[45] = tested on: TK-10
[46] = tested on: CAKI-1
[47] = tested on: SK-MEL-5
[48] = tested on: HOP-92
[49] = tested on: RXF 393
[50] = tested on: UACC-62
[51] = tested on: MOLT-4
[52] = tested on: ACHN
[53] = tested on: SF-295
[54] = tested on: NCI-H226
[55] = tested on: HT-29
[56] = tested on: LOX IMVI
[57] = tested on: SK-MEL-2
[58] = tested on: RPMI-8226

Cn1c(-c2cccs2)cc(-c2ccsc2)c1-c1ccsc1
GI50 [1]: > 100 µM (inactive) | GI50 [2]: > 100 µM (inactive) | GI50 [3]: > 100 µM (inactive) | GI50 [4]: > 100 µM (inactive) | GI50 [5]: > 100 µM (inactive) | GI50 [6]: > 100 µM (inactive) | GI50 [7]: > 100 µM (inactive) | GI50 [8]: > 100 µM (inactive) | GI50 [9]: > 100 µM (inactive) | GI50 [10]: > 100 µM (inactive) | GI50 [11]: > 100 µM (inactive) | GI50 [12]: > 100 µM (inactive) | GI50 [13]: 64.1 µM (inactive) | GI50 [14]: > 100 µM (inactive) | GI50 [15]: > 100 µM (inactive) | GI50 [16]: > 100 µM (inactive) | GI50 [17]: > 100 µM | GI50 [18]: > 100 µM (inactive) | GI50 [19]: > 100 µM (inactive) | GI50 [20]: > 100 µM (inactive) | GI50 [21]: > 100 µM (inactive) | GI50 [22]: > 100 µM (inactive) | GI50 [23]: > 100 µM (inactive) | GI50 [24]: > 100 µM (inactive) | GI50 [25]: > 100 µM (inactive) | GI50 [26]: > 100 µM (inactive) | GI50 [27]: > 100 µM (inactive) | GI50 [28]: 8.24 µM (inactive) | GI50 [29]: > 100 µM (inactive) | GI50 [30]: > 100 µM (inactive) | GI50 [31]: > 100 µM (inactive) | GI50 [32]: 1.81 µM (inactive) | GI50 [33]: > 100 µM (inactive) | GI50 [34]: > 100 µM (inactive) | GI50 [35]: > 100 µM (inactive) | GI50 [36]: > 100 µM (inactive) | GI50 [37]: > 100 µM (inactive) | GI50 [38]: > 100 µM (inactive) | GI50 [39]: 6.59 µM (inactive) | GI50 [40]: > 100 µM (inactive) | GI50 [41]: > 100 µM (inactive) | GI50 [42]: > 100 µM (inactive) | GI50 [43]: > 100 µM (inactive) | GI50 [44]: > 100 µM (inactive) | GI50 [45]: > 100 µM (inactive) | GI50 [46]: > 100 µM (inactive) | GI50 [47]: 36.1 µM (inactive) | GI50 [48]: > 100 µM (inactive) | GI50 [49]: > 100 µM (inactive) | GI50 [50]: > 100 µM (inactive) | GI50 [51]: > 100 µM (inactive) | GI50 [52]: > 100 µM (inactive) | GI50 [53]: > 100 µM (inactive) | GI50 [54]: > 100 µM (inactive) | GI50 [55]: 93.5 µM (inactive)

COc1cc(C2SC(=N)Nc3c2c(C)nn3C(=O)c2ccccc2O)cc(OC)c1OC (stereo unspecified)
GI50 [2]: 5.92 µM (inactive) | GI50 [3]: 2.04 µM (inactive) | GI50 [4]: > 10 µM (inactive) | GI50 [5]: 8.3 µM (inactive) | GI50 [6]: 9.14 µM (inactive) | GI50 [7]: 9.35 µM (inactive) | GI50 [8]: 5.12 µM (inactive) | GI50 [9]: 7.41 µM (inactive) | GI50 [56]: 5.16 µM (inactive) | GI50 [10]: 4.24 µM (inactive) | GI50 [57]: > 10 µM (inactive) | GI50 [11]: > 10 µM (inactive) | GI50 [58]: > 10 µM (inactive) | GI50 [12]: 1.87 µM (inactive) | GI50 [13]: 1.59 µM (inactive) | GI50 [14]: 8.71 µM (inactive) | GI50 [15]: 3.85 µM (inactive) | GI50 [16]: 6.15 µM (inactive) | GI50 [17]: 4.31 µM | GI50 [18]: > 10 µM (inactive) | GI50 [19]: 3.57 µM (inactive) | GI50 [20]: 5 µM (inactive) | GI50 [21]: 2.81 µM (inactive) | GI50 [22]: > 10 µM (inactive) | GI50 [23]: 5.48 µM (inactive) | GI50 [24]: 6.78 µM (inactive) | GI50 [25]: > 10 µM (inactive) | GI50 [27]: 1.66 µM (inactive) | GI50 [28]: 8.3 µM (inactive) | GI50 [29]: > 10 µM (inactive) | GI50 [30]: 4.89 µM (inactive) | GI50 [31]: 6.18 µM (inactive) | GI50 [32]: 3.26 µM (inactive) | GI50 [33]: 6.76 µM (inactive) | GI50 [34]: 4.42 µM (inactive) | GI50 [35]: > 10 µM (inactive) | GI50 [36]: 6.14 µM (inactive) | GI50 [37]: 7.89 µM (inactive) | GI50 [38]: > 10 µM (inactive) | GI50 [39]: > 10 µM (inactive) | GI50 [40]: > 10 µM (inactive) | GI50 [41]: 4.38 µM (inactive) | GI50 [42]: 9.18 µM (inactive) | GI50 [43]: > 10 µM (inactive) | GI50 [44]: 6.71 µM (inactive) | GI50 [45]: > 10 µM (inactive) | GI50 [46]: 6.05 µM (inactive) | GI50 [47]: 3.78 µM (inactive) | GI50 [48]: 3.12 µM (inactive) | GI50 [49]: 8.51 µM (inactive) | GI50 [50]: 2.72 µM (inactive) | GI50 [51]: 4 µM (inactive) | GI50 [52]: 4.32 µM (inactive) | GI50 [53]: 3.51 µM (inactive) | GI50 [54]: > 10 µM (inactive) | GI50 [55]: > 10 µM (inactive)
